Results taken from patent US20220047687A1, “CHEMICAL SCALPEL” (FUNDACIÓN INSTITUTO DE INVESTIGACIÓN SANITARIA FUNDACIÓN …, priority 2019, published 2022).
Entries after “also recorded” stand apart in the source; their conditions may differ.

What was measured:
[1] = test system: cytokines and chemokines; test: Cytokines circulating in plasma after collagenase washing; assay type: in vivo, rat
Protocol: A new blood test was performed with the 10 rats in the 1st group. For each of them, blood was taken 15 days after surgery. Post-collagenase cytokines were analyzed.
A new blood test is performed on the 6 rats in the 2nd group on 26/07/2018 and on the 4 controls.
Post-collagenase cytokines are analyzed

[2] = test system: abdominal organs and peritoneum; test: Survival and necropsy of healthy rats after peritoneal washing (groups A, B); settings: group A, collagenase 37 U/mL; 1 died after surgery due to evisceration
Text: During this phase, a series of survival experiments were established with various work groups and subgroups to learn about the co-adjuvant or enhancing role of collagenase in the treatment of peritoneal tumors with chemotherapeutic agents such as mitomycin C:
Each group initially consisted of 6 rats (2×3). In the initial design, 3 animals were sacrificed after 15 days and the rest were left until the conditions of the animals required them to be sacrificed (subcutaneous tumor growth >0.5 cm in diameter) or a maximum of 2 months.

[3] = test system: peritoneal tissues; test: First tests of peritoneal washing with collagenase on mouse (fine-tuning); settings: for necropsy findings: mice
Protocol: Six 5-week old double knock-out female mice (LIPDKO), from which the lipocalin-2 gene (which affects neutrophil recruitment) and the ApoE gene (which makes it more probable for the mice to develop atherosclerosis) have been eliminated, were used. […] Each concentration was injected to 2 mice according to their weight.
Cells obtained from washing which grew in culture dishes as well as the morphology of the peritoneal tissues after washing at different concentrations were analyzed.
Once the enzyme dose was selected, the actuation time was determined in the same manner and on the same model by means of tests from 40, 30, 20, 10, and 5 minutes. Throughout this fine-tuning method, the washing liquid was collected and cultured in a complete medium to analyze the cells obtained; different organs of the animals were also collected at the same time to check for the existence at any time (concentration/time) of any organ damage and to check the condition of the peritoneal tissues.

[4] = test system: mesothelial layer covering the intestinal tract; test: First tests of peritoneal washing with collagenase on rat (Wistar); assay type: in vivo; settings: optimum concentration and time (35 U/mL, 10-15 minutes)
Protocol: For the purpose of fine-tuning the volume of the cavity and the optimum treatment time so that no organ in the cavity will sustain any damage, twenty 6-week old Wistar rats weighing 250 grams were used, and they were tested at different concentrations of 35 U/mL of collagenase and 37 U/mL of collagenase for clinical use. Up until now, all the studies had been performed with collagenase for experimental use, nevertheless, the choice was made to use collagenase authorized for clinical use from now on, taking into account the potency equivalence calculations requested from the manufacturer. A study was then conducted using different times of treatment with collagenase from 2 minutes to 30 minutes (30, 20, 15, 10, 5, and 2) with n=2 in the 4 intermediate times.

[5] = test system: peritoneal adhesions (polypropylene mesh); test: Peritoneal adhesion model group 2 (4 large meshes): adhesion tear test; assay type: in vivo, rat; settings: group 2, blind study, 0.05%; PBS control 325.76
Protocol: About one month later, intervention is performed on 6 additional 6-week old Wistar rats belonging to a second group (Group II). After inhalation anesthesia with Forane, the animal being shaved, and aseptic measures being implemented, laparotomy is performed with the implantation of 4 polypropylene meshes in the abdominal cavity, 2 on each side of the midline. Prior to implantation, the mesh is wetted with pss.
Secondly, experiments were performed on the rats belonging to group 2. The rats in this group were operated on, divided into two groups with 3 rats each, where a first group received 0.05% collagenase and the other placebo (PBS). After that they were subjected to an adhesion tear test, measuring the maximum pressure and the curve at which the adhesion tore. To that end, an adhesion tear measurement system was used which consisted of a high-precision digital pressure gauge that measured the pressure of a closed and rigid system with three outlets. One was a manual pressure pump, the other one was a piston with linear mobility to which clamps for pulling are fitted and which takes pressure away from the pressure gauge. The pressure needed to cause the tear of the adhesions generated in the collagenase group vs. control group was measured with this system.

## Collagenase
[1]; anti-inflammatory cytokine
  IL4 in plasma vs PBS: Insignificant increase
  IL10 in plasma vs PBS: Insignificant increase
[1]; at four months
  levels of all the cytokines and chemokines between the 2 groups: normalized
[1]; chemokines
  G-CSF in plasma vs PBS: no difference
  GM-CSF in plasma vs PBS: no difference
  KC in plasma vs PBS: no difference
  M-MCF in plasma vs PBS: no difference
  MCP1 in plasma vs PBS: significant increase
  MIP3a in plasma vs PBS: no difference
  MIPla in plasma vs PBS: no difference
  RANTRES in plasma vs PBS: no difference
  VEGF in plasma vs PBS: significant increase
[1]; pro-inflammatory cytokine
  IL12-p70 in plasma vs PBS: Significant increase (p<0.01)
  INF-gamma in plasma vs PBS: no differences
  TNF-alpha in plasma vs PBS: Significant increase (p<0.01)
[1]; regulatory cytokine
  IL1a in plasma vs PBS: no difference
  IL1b in plasma vs PBS: no difference
  IL2 in plasma vs PBS: significant increase (p<0.05)
  IL5 in plasma vs PBS: no difference
  IL6 in plasma vs PBS: no difference
  IL7 in plasma vs PBS: no difference
  IL13 in plasma vs PBS: no difference
  IL17a in plasma vs PBS: no difference
  IL18 in plasma vs PBS: significant increase (p<0.05)
[2]
  survival: 4 out of 5
[3]; mice 5 and 6, highest doses of collagenase
  clinical observations half an hour after administration: lethargic, exhibited signs of pain and a very reduced response to handling; also recorded: the abdominal wall had become detached
[3]; mice with the highest doses of collagenase
  mortality: died within one hour
[3]; 17.5 U/mL and 8.75 U/mL (one mouse each line)
  necropsy findings: somewhat hematic abdominal wall that has experienced the least thinning; also recorded: abdominal wall with a normal appearance and color
[3]; 35 U/mL
  necropsy findings: very thin hematic abdominal wall that ruptures by itself
[3]; 87.5 U/mL
  necropsy findings: hematic, practically transparent abdominal wall that completely comes off the skin and ruptures by itself when touched
[3]; one mouse, 35 U/mL
  clinical observations half an hour after administration: responded well to handling but exhibited signs of pain
[4]
  macroscopic and histological findings: No organ or tissue impairment is observed histologically; also recorded: elimination of the mesothelial cells covering the intestine and omentum is observed but without the involvement of any organ; also recorded: thinning of the mesothelial layer covering the intestinal tract without the involvement of intermediate or internal layers
[5]
  adhesion tear pressure: 188.26 millibar
